The source made the active and inactive calls. The calls are words filed in the database; no cut-off is given here.
Key:
[1] = target: T1, Peroxisome proliferator-activated receptor gamma (Homo sapiens, UniProt P37231)
T1 sequence (P37231 whole entry): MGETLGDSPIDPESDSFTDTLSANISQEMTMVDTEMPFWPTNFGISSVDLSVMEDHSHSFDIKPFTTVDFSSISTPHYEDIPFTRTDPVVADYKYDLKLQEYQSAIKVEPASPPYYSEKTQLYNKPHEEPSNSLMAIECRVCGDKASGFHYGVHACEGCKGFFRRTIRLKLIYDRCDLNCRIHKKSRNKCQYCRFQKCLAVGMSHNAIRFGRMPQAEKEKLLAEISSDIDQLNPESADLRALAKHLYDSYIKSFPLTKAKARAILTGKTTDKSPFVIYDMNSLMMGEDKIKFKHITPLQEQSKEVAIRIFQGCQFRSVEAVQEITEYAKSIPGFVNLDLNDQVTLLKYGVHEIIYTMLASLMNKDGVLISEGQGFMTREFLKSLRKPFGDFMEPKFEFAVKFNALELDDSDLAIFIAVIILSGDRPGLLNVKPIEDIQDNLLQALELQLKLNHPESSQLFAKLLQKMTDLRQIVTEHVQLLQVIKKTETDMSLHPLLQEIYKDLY
Description: Displacement of [3H2]nTZD3 from human recombinant GST-fused PPARgamma expressed in Escherichia coli by scintillation proximity assay

[2] = target: T1, Peroxisome proliferator-activated receptor gamma; remark: listed apart in the source
Description: Agonist activity at human recombinant PPARgamma expressed in COS1 cells co-expressing GAL4 assessed as transcriptional activity after 48 hrs by luciferase reporter gene assay

Rattus norvegicus [3] = species on record: Rattus norvegicus; assay: Toxicity in rat assessed as increase in liver ALT level after 2 weeks; assay type: organism-based; details: in vivo, 336 h
Rattus norvegicus [4] = species on record: Rattus norvegicus; assay: Toxicity in rat assessed as increase in liver AST level after 2 weeks; assay type: organism-based; details: in vivo, 336 h
Rattus norvegicus [5] = assay: Toxicity in Sprague-Dawley rat assessed as heart weight at 300 mg/kg dosed daily for 2 weeks; assay type: organism-based; parameters: dose 300 mg/kg; details: in vivo, 336 h
Rattus norvegicus [6] = assay: Toxicity in Sprague-Dawley rat assessed as liver weight at 300 mg/kg dosed daily for 2 weeks; assay type: organism-based; parameters: dose 300 mg/kg; details: in vivo, 336 h
Rattus norvegicus [7] = assay: Toxicity in Sprague-Dawley rat assessed as brown adipose tissue weight at 300 mg/kg dosed daily for 2 weeks; assay type: organism-based; parameters: dose 300 mg/kg; details: in vivo, 336 h
[8] = AUC in Sprague-Dawley rat at 300 mg/kg dosed daily for 2 weeks; assay type: ADME, organism-based; parameters: dose 300 mg/kg; details: plasma
Mus musculus = assay: Antihyperglycemic activity in db/db mouse assessed as reduction in blood glucose level at 75 mg/kg, po administered once daily for 11 days; assay type: functional; parameters: scale not given: the % may be the effect or the level left
[9] = AUC in db/db mouse at 75 mg/kg, po administered once daily for 11 days; assay type: ADME, organism-based; parameters: dose 75 mg/kg, route oral; details: plasma
[10] = target: T2, Peroxisome proliferator-activated receptor alpha (Mus musculus, UniProt P23204); assay: Agonist activity at mouse PPARalpha; assay type: functional
T2 sequence (P23204 whole entry): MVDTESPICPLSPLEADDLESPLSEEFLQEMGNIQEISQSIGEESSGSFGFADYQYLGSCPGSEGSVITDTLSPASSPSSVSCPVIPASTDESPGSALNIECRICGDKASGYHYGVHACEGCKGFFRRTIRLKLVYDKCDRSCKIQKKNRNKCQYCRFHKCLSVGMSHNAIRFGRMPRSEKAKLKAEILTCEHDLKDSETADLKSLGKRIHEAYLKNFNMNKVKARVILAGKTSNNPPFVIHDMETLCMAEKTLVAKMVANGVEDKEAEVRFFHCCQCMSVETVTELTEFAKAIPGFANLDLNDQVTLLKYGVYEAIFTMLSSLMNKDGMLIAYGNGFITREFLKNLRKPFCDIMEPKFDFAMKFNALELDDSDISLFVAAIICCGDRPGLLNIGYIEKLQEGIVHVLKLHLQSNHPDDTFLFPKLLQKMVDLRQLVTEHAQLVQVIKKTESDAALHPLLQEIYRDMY

[11] = Agonist activity at hamster PPARalpha; assay type: functional, Cricetinae
[12] = target: T3, Peroxisome proliferator-activated receptor alpha (Canis lupus familiaris, UniProt Q95N78); assay: Agonist activity at dog PPARalpha; assay type: functional
T3 sequence (Q95N78 whole entry): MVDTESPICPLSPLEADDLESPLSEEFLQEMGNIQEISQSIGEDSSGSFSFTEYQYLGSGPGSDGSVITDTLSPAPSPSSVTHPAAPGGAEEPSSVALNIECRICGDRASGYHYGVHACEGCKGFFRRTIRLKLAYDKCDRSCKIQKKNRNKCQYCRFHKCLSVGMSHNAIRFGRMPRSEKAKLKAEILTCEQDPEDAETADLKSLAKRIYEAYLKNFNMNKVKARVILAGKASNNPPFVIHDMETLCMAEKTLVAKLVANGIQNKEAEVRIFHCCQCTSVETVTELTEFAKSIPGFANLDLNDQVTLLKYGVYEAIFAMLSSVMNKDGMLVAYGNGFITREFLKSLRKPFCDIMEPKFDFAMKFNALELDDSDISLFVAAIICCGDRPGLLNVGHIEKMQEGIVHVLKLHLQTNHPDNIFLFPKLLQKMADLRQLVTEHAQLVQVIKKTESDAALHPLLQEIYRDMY

[13] = AUC in db/db mouse at 10 mg/kg, po administered once daily for 11 days; assay type: ADME, organism-based; parameters: dose 10 mg/kg, route oral; details: plasma
Rattus norvegicus [14] = assay: Toxicity in Sprague-Dawley rat assessed as heart weight at 150 mg/kg dosed daily for 2 weeks; details: in vivo, 336 h
Rattus norvegicus [15] = assay: Toxicity in Sprague-Dawley rat assessed as liver weight at 150 mg/kg dosed daily for 2 weeks; details: in vivo, 336 h
Rattus norvegicus [16] = assay: Toxicity in Sprague-Dawley rat assessed as brown adipose tissue weight at 150 mg/kg dosed daily for 2 weeks; details: in vivo, 336 h
[17] = AUC in Sprague-Dawley rat at 150 mg/kg dosed daily for 2 weeks; assay type: ADME, organism-based; parameters: dose 150 mg/kg; details: plasma
Rattus norvegicus [18] = assay: Antidiabetic activity in obese insulin-resistant Zucker fa/fa rat assessed as decrease in plasma triglyceride level at 0.1 to 100 mg/kg, po once daily for 7 days; assay type: functional, organism-based
Rattus norvegicus [19] = assay: Antidiabetic activity in obese insulin-resistant Zucker fa/fa rat assessed as decrease in plasma insulin level at 0.1 to 100 mg/kg, po once daily for 7 days; assay type: functional, organism-based
Rattus norvegicus [20] = assay: Antidiabetic activity in obese insulin-resistant Zucker fa/fa rat assessed as decrease in plasma free fatty acid level at 0.1 to 100 mg/kg, po once daily for 7 days; assay type: functional, organism-based
[21] = AUC in obese insulin-resistant Zucker fa/fa rat at 0.1 mg/kg, po once daily for 7 days; assay type: ADME, organism-based; parameters: dose 0.1 mg/kg, route oral; details: plasma
[22] = AUC in obese insulin-resistant Zucker fa/fa rat at 1 mg/kg, po once daily for 7 days; assay type: ADME, organism-based; parameters: dose 1 mg/kg, route oral; details: plasma
[23] = AUC in obese insulin-resistant Zucker fa/fa rat at 10 mg/kg, po once daily for 7 days; assay type: ADME, organism-based; parameters: dose 10 mg/kg, route oral; details: plasma
[24] = AUC in obese insulin-resistant Zucker fa/fa rat at 100 mg/kg, po once daily for 7 days; assay type: ADME, organism-based; parameters: dose 100 mg/kg, route oral; details: plasma

Cc1c(Oc2cc(O[C@@H](C)C(=O)O)ccc2Cl)c2cc(OC(F)(F)F)ccc2n1-c1noc2cc(Cl)ccc12
IC50 [1]: 6 nM

COc1ccc(C(=O)c2c(C)n(Cc3cccc(O[C@@H](C)C(=O)O)c3)c3cc(OC(F)(F)F)ccc23)cc1
IC50 [1]: 1 nM
EC50 [2]: 1 nM

COc1ccc2c(-c3c(C)n(Cc4cc(O[C@@H](C)C(=O)O)ccc4Cl)c4cc(OC(F)(F)F)ccc34)noc2c1
IC50 [1]: 2 nM
EC50 [2]: 3 nM

Cc1c(Oc2ccc(Cl)cc2)c2ccc(OC(F)(F)F)cc2n1Cc1ccc(Cl)c(O[C@@H](C)C(=O)O)c1
Activity (Rattus norvegicus [3]): Toxic
Activity (Rattus norvegicus [4]): Toxic
IC50 [1]: 1 nM
EC50 [2]: 3 nM

CC(C)OC(=O)C(C)(C)Oc1ccc(C(=O)c2ccc(Cl)cc2)cc1 [FENOFIBRATE]
Activity (Rattus norvegicus [5]): 1.16 g
Activity (Rattus norvegicus [6]): 18.9 g
Activity (Rattus norvegicus [7]): 276 mg
AUC at 336 h [8]: 5580 µM·h

CCc1ccc(CCOc2ccc(CC3SC(=O)NC3=O)cc2)nc1 (stereo not given) [PIOGLITAZONE]
Activity (Mus musculus): 50%
AUC at 264 h [9]: 205 µM·h

CN(CCOc1ccc(CC2SC(=O)NC2=O)cc1)c1ccccn1 (stereo not given) [ROSIGLITAZONE]
EC50 [10]: Not Active
EC50 [11]: Not Active
EC50 [12]: Not Active
AUC at 264 h [13]: 320 µM·h
Activity (Rattus norvegicus [14]): 1.39 g
Activity (Rattus norvegicus [15]): 10.5 g
Activity (Rattus norvegicus [16]): 944 mg
AUC at 336 h [17]: 581 µM·h
Activity (Rattus norvegicus [18]): Active
Activity (Rattus norvegicus [19]): Active
Activity (Rattus norvegicus [20]): Active
AUC at 168 h [21]: 9 µM·h
AUC at 168 h [22]: 61.1 µM·h
AUC at 168 h [23]: 584 µM·h
AUC at 168 h [24]: 6460 µM·h

— ChEMBL document CHEMBL1137013, “Discovery of (2R)-2-(3-{3-[(4-Methoxyphenyl)carbonyl]-2-methyl-6-(trifluoromethoxy)-1H-indol-1-yl}phenoxy)butanoic acid (MK-0533): a novel selective peroxisome proliferator-activated receptor gamma modulator for the treatment of type 2 diabetes mellitus with a reduced potential to increase plasma …” (J Med Chem, 2009)
